For one assay, the system named is MRSA. Particulars: systemically delivered, mouse models; cited from earlier work.
In assay [1] the test system is MRSA strain NRS382 biofilms. Nature of the assay: Dynamic biofilm model, Live/Dead viability. Particulars: Staphylococcus aureus, 2 h, read-out: viability in dynamic biofilms (percentage of live cells; controls 100%). In kind it is cell-based, S. aureus. As to the method: Biofilms were pre-stained with the Live/Dead stain (see methods) and viewed with 20× magnification. FIG. 9b depicts bacterial viability. Analysis of bacterial viability in NRS382 dynamic biofilms is based on mean fluorescent intensities of the Live/Dead viability stain when exposed to 100 μg/ml of PGH K-L (1.4 μM), K-L-PTD1 (1.4 μM), or vancomycin (69 μM) at a flow rate of 0.5 ml/min for 2 h and compared to PBS. Error bars represent SEM (N=3) of three independent 100×100 pixel squares identically located in each biofilm z-stack. […]
In order to visualize the viability of S. aureus NRS382 biofilms, each chamber of the flow cell was fluorescently labeled by the Live/Dead BacLight™ staining kit (Invitrogen, Carlsbad, Calif.) for one hour. […] To quantify the viability of S. aureus NRS382 biofilms at various time points in the presence of different treatments, one image at the center of z-series (i.e. center of the biofilm) for each time point was selected to represent each treatment group. Three squares representing 100×100 pixels were drawn in each image and the mean intensity of live (green channel) and dead (red channel) cell populations were calculated by Zen 2010 digital imaging software (Carl Zeiss). […] The percentage of live cells remaining in biofilms after various treatments was statistically analyzed by an unpaired t-test.

As for `Cc1onc(-c2ccccc2)c1C(=O)N[C@@H]1C(=O)N2[C@@H]1SC(C)(C)[C@@H]2C(=O)O` [oxacillin], the “protection from MRSA bacteremia / survival at 48 hours post infection” value in the assay with MRSA is on record as 20%.
As to `CN[C@H](CC(C)C)C(=O)N[C@H]1C(=O)N[C@@H](CC(N)=O)C(=O)N[C@H]2C(=O)N[C@H]3C(=O)N[C@H](C(=O)N[C@H](C(=O)O)c4cc(O)cc(O)c4-c4cc3ccc4O)[C@H](O)c3ccc(c(Cl)c3)Oc3cc2cc(c3O[C@@H]2O[C@H](CO)[C@@H](O)[C@H](O)[C@H]2O[C@H]2C[C@](C)(N)[C@H](O)[C@H](C)O2)Oc2ccc(cc2Cl)[C@H]1O` [vancomycin], the viability at 100 µg/mL in assay [1] worked out at 40%.

The values above are taken from patent US20160097044A1, “Antimicrobial Enzyme Fusions Reduce Resistance and Kill Intracellular Staphylococcus aureus” (The United States of America, as Represented by the …, priority 2014, published 2016).
